Measurements reported in patent publication US4637997A, “Hexapeptide, process for obtaining II and the pharmaceutical compositions containing II” (Institut National de la Sante et de la Recherche Medicale, priority 1984, dated 1987).
Peptide text beside a SMILES is read from it.

Test system: Klebsiella pneumoniae
Test: experimental infection with Klebsiella pneumoniae in the mouse
Type: in vivo
Details: i.v.

CC[C@H](C)[C@H](NC(=O)[C@@H]1CCCN1C(=O)[C@H](CCC(=O)O)NC(=O)[C@@H](N)C(C)C)C(=O)N1CCC[C@H]1C(=O)N[C@@H](Cc1ccc(O)cc1)C(=O)O [hexapeptide of formula (I), Val-Glu-Pro-Ile-Pro-Tyr] (H-VEPIPY-OH)
dose from which remarkable activity against experimental infection is exhibited: ≥ 0.05 mg/kg
